Blank lines part the entries; values can stand above or below the compound they belong to.
Assays:
[1] = 0 °C (SOPC Tc 6 °C, gel state), CLSM observation; cited from earlier work
dermal fibroblasts = conditions: cited from earlier work
Excerpt: Hoffmeister Effect of solute[12] is one of the known phenomena to control the hydration level of self-assembled amphiphiles. Chaotropic solutes (water structure breakers) such as sodium thiocyanate (NaSCN) and 1,3-butanediol (1,3-BG) make the membrane curvature positive. On the other hand, kosmotropic solutes (water structure maker ...

[2] = Leakage of internalized FITC-R8 and rhodamine from GUV; conditions: EPC GUV, L/P = 1000, 10 min, 37 °C, different osmotic pressures, with or without FITC-R8 in outer medium, fluorescence Ex 555/Em 575 nm, n = 5
Method: GUVs were prepared by the freeze-melting and natural swelling method[23]. Lipids dissolved in chloroform were placed into the vials, and then the solvent was evaporated. After being dried in vacuo for 16 h in the dark, lipid films were hydrated with 0.01 mg/mL of Rho/3 M KCl solution to give 20 mM lipid concentration. […] The suspension was vortexed for 1 min. This step (from freezing to vortexing) was repeated six times. It was transferred to a dialysis membrane (UC-8-32-25; Viskase Co. Ltd., Chicago, USA) and dialyzed against 20% PBS for at least two days at room temperature and, the dialysis solution was daily replaced by a new one. In this study, 20% PBS is defined as ‘isotonic solution’ and PBS solution at concentrations less than 20% as ‘hypotonic solution’ and at higher than 20% as ‘hypertonic solution’.
Penetration assay of CPP into GUV was conducted in the same manner previously reported[23]. […] The ratio of penetrated FITC-R8 and Rho leakage ratio was calculated using the following equations:1 P=A/U×100 2 L=IL-Rho/IL-Rho+INL-Rho×100
In Eq. (1), P is the penetrated ratio of FITC-R8 ratio, A is the amount of penetrated FITC-R8 into GUV calculated using the standard curve, and U is the amount of FITC-R8 used in this experiment. In Eq. (2), L is the leaked Rho ratio, and IL-Rho and INL-Rho are the fluorescence intensities of leaked and non-leaked Rho.

[3] = set-up: method as in doi:10.1246/cl.2012.1078; conditions: under the tested conditions, regardless of osmotic pressure change; cited from earlier work

Compound: N=C(N)NCCC[C@H](NC(=O)[C@H](CCCNC(=N)N)NC(=O)[C@H](CCCNC(=N)N)NC(=O)[C@H](CCCNC(=N)N)NC(=O)[C@H](CCCNC(=N)N)NC(=O)[C@H](CCCNC(=N)N)NC(=O)[C@H](CCCNC(=N)N)NC(=O)[C@H](CCCNC(=N)N)NC(=O)CCCNC(=S)Nc1ccc2c(c1)C(=O)OC21c2ccc(O)cc2Oc2cc(O)ccc21)C(=O)O [FITC-R8]
- cytolysis to SOPC GUV [1]: no cytolysis
- cell viability with chaotropic solutes (NaSCN, 1,3-BG) (dermal fibroblasts): without interfering with cell viability

- leakage of rhodamine pre-encapsulated in the GUV [2]: very low and consistent
Compound: CCN(CC)c1ccc2c(-c3ccccc3C(=O)O)c3ccc(=[N+](CC)CC)cc-3oc2c1 [rhodamine, Rhodamine B]

Compound: fluorescein isothiocyanate [FITC]
- permeation through the membrane into the cytosol [3]: could not permeate through the membrane
